In PubChem BioAssay AID977628 (Broad Institute, 2014):
Inconclusive results are not listed. The source made the active and inactive calls.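 Rule for the calls: active = compound lowering the normal-ribosome reporter at least twice as much as the humanized-ribosome reporter, growth loss under a set limit; inconclusive = no clear call, values can overlap the other calls; inactive = the rest.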

What was measured:
Assay in all cases: E. coli growth inhibition, wild-type GFP versus h24 humanized RFP strain, dose response, h24 mutant RFP vs wild-type GFP, cherry-pick (AID 977628);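 note: wild-type GFP and h24 humanized RFP strains co-cultured 1 to 1 per well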
[1] = tested on: E. coli WT GFP strain growth, fluorescence, 24 h
[2] = tested on: E. coli mixed WT/h24 culture total growth, OD600, 24 h
[3] = tested on: E. coli h24 humanized mutant RFP strain growth, fluorescence, 24 h

SMILES	AC50 [1]	AC50 [2]	AC50 [3]
CCn1cc(Br)c(C(=O)Nc2ccc(C(=O)OC(C)C)cc2)n1	> 100 µM (inactive)	19.9 µM	2.96 µM
O=C(O)CCSc1nc2ccccc2n1-c1ccccc1	> 100 µM (inactive)	36.4 µM	29.2 µM
Cc1cccc(S(=O)(=O)Nc2ccc(-c3cn4ccccc4n3)cc2)c1	> 100 µM (inactive)	29.7 µM	> 100 µM
Cc1ccc(C(=O)Nc2cccc3[nH]c(C(F)(F)F)nc23)cc1	> 100 µM (inactive)	> 100 µM	> 100 µM
Cc1nc(C)c(-c2ccn(S(=O)(=O)c3ccc(Cl)cc3)n2)o1	> 100 µM (inactive)	45.5 µM	> 100 µM
COc1ccccc1-c1nnc(C2CCN(S(=O)(=O)c3cccc([N+](=O)[O-])c3)CC2)o1	> 100 µM (inactive)	> 100 µM	> 100 µM
COC(C(=O)Nc1ccnn1C1CCN(Cc2ccc(Cl)s2)CC1)c1ccccc1 (stereo not given)		> 100 µM	> 100 µM
Nc1[nH]c(C(=O)c2ccccc2)c(-c2ccc3c(c2)OCO3)c1C(=O)NCCc1c[nH]c2ccccc12	> 100 µM (inactive)	> 100 µM	> 100 µM
O=C(COC(=O)C1CC2C=CC1C2)Nc1ccc([N+](=O)[O-])cc1 (stereo not given)		> 100 µM	> 100 µM
Nc1ccccc1Sc1ccc(C(F)(F)F)cc1[N+](=O)[O-]	> 100 µM (inactive)	52.3 µM	> 100 µM
COc1cc(NC(=O)COC(=O)CC(C)(C)C)c(C)cc1[N+](=O)[O-]	> 100 µM (inactive)	> 100 µM	> 100 µM
CCCCNC(=O)C[C@@H]1C[C@@]2(C(=O)OC)CCCCC=C2N(Cc2ccccc2)C1=O	> 100 µM (inactive)	> 100 µM	> 100 µM
COCc1ccc(C(=O)N2CCCC(C(=O)c3ccc(Cl)cc3C)C2)o1 (stereo not given)		> 100 µM	> 100 µM
Cc1cc(C)n2nc(C(=O)Nc3cccc(S(=O)(=O)N(C)c4ccccc4)c3)nc2n1	> 100 µM (inactive)	> 100 µM	> 100 µM
CCc1cc2cc(OC)ccc2nc1SCC(=O)Nc1cc(OC)c(OC)cc1C(=O)O		> 100 µM	> 100 µM
O=C(O)c1cc(S(=O)(=O)N2CCN(C(c3ccccc3)c3ccccc3)CC2)ccc1Cl	> 100 µM (inactive)	> 100 µM	> 100 µM
CCc1ccn2cc(-c3ccc4c(c3)OCO4)nc2c1	> 100 µM (inactive)	> 100 µM	> 100 µM
CCc1cc(C(=O)c2ccc(OC)cc2)c(NC(=O)CCC(=O)O)s1	> 100 µM (inactive)	50.9 µM	49 µM
C[C@]12C(=O)N(c3ccc(F)cc3)C(=O)N1[C@@H]1c3ccccc3OC[C@@H]1[C@H]2c1ccccc1		> 100 µM	5.36 µM
COc1ccc2cc(CO)c3cc(OC)c(OC)cc3c2c1	> 100 µM (inactive)	> 100 µM	> 100 µM
CSc1nnnn1-c1ccc(Cl)cc1		> 100 µM	> 100 µM
CCCN(Cc1ccco1)S(=O)(=O)c1ccc(OC)c(OC)c1		> 100 µM	> 100 µM
O=S1(=O)c2ccc(Br)cc2OCCC2CCCCN21 (stereo not given)	> 100 µM (inactive)	> 100 µM	> 100 µM
COc1ccccc1CNC(=O)CN1C(=O)NC(c2ccccc2)(c2ccccc2)C1=O	> 100 µM (inactive)	> 100 µM	> 100 µM
NS(=O)(=O)c1cccc(NC(=O)c2cccc(-c3ccc(O)cc3)c2)c1	> 100 µM (inactive)	50.8 µM	> 100 µM
CCc1cccc(NC(=O)CCC(=O)N2CCSc3ccccc32)c1	> 100 µM (inactive)	41.7 µM	> 100 µM
Cc1ccccc1-c1nc(CS(=O)(=O)CC(=O)N2CCCCC2)c(C)o1		> 100 µM	> 100 µM
CCN(C(=O)CSc1cc(C)c2ccc(OC)cc2n1)C1CCS(=O)(=O)C1 (stereo not given)		> 100 µM	> 100 µM
